Experimental data taken from US20100311714A1, “1H-IMIDAZO[4,5-c]QUINOLINONE COMPOUNDS” (priority 2009, published 2010).

Columns and labels:
Type in all cases: cell-based
[1] = system: PKB Ser473 phosphorylation in Rat1-myr-HA-p110 delta cells; test: Reverse protein array, PKB Ser473 phosphorylation in Rat1-myr-HA-p110 delta cells; conditions: Rattus norvegicus, 0.5 h, 30 minutes compound incubation, read-out: p-PKB/IC50_delta
Description: (§1) No. 15140-114) and 10 μg/ml Puromycine (Sigma, cat. No. P9620).
(§2) The Rat1-myr-HA-p110 alpha, beta and delta cells were trypsinized and counted with a CASY TT cell counter (Schärfe System GmbH, Reutlingen Germany). The cells were diluted in fresh DMEM complete medium and 3×10^4 cells/150 μl/well seeded in 96-well TPP-tissue culture plates (TPP, cat. No. 92096). The plates were incubated at 37° C. and 5% CO2 under humidified condition for at least 20 h. Compound of formula I working solutions were prepared freshly as serial 8 step dilutions (vol/vol) in DMSO on the day of the experiment. The working solutions were further diluted 1/500 in cell culture medium to get final compound concentrations of 10, 3.333, 1.111, 0.370, 0.123, 0.041, 0.014, 0.005 μM. The final DMSO concentration was kept constant at 0.2%. cell culture medium containing 0.2% DMSO was used as vehicle treatment control. Post incubation, the cells were treated with the serial compound dilution. 50 μl of the compound medium mixture was added to the wells containing cells and 150 μl DMEM medium and incubated for 30 minutes (37° C., 5% CO2). After 30 minutes of incubation, the medium mixture was quickly removed by aspiration. For cell lysis, a mixture of 10% CLB1 CeLyA lysis buffer (Zeptosens, cat. No. 9000), 90% CSBL1 CeLyA spotting buffer (Zeptosens, cat. No. 9020) was freshly prepared and supplemented with 1% Octyl β-D-glucopyranoside (SIGMA, cat. No. 08001-5G) and 1 mM Na-Orthovanadate (Sigma, cat No. S-6508). 50 μl of the described lysis buffer mix was added to each well, followed by 10 minutes of incubation on ice. After an additional freeze-thaw cycle, another 50 μl of the lysis buffer mix without Octyl β-D-glucopyranoside was added to the wells, and 90 μl of the cell lysate was transferred to a 96-well V-bottom plate (Fisher Scientific, cat. No. 6067Y), followed by a centrifugation step (5 min, 1500 rpm at 19° C. in an Eppendorf 5810R centrifuge) to remove the unlysed cell debris.
(§3) The samples were spotted onto ZeptoMARK® PWG protein microarray chips (Zeptosens, Witterswil, Switzerland) with the piezoelectric microdispense-based, non-contact Nano-Plotter 2.1 (GeSiM, Grosserkmannsdorf, Germany). Each sample was spotted at 4 different sample concentrations (d1=100%, d2=75%, d3=50%, d4=25%) by diluting the cell lysate with the corresponding volume of lysis buffer mix. After spotting the ZeptoMARK® protein microarrays, the chips are incubated for 1 hour at 37° C. To receive a uniform blocking result, the CeLyA blocking buffer BB1 (Zeptosens, cat. No. 9040) is administered via an ultrasonic nebulizer. After 20 minutes of blocking the chips are extensively rinsed with deionized water (Milli-Q quality, 18MΩ×cm) and dried in a nitrogen air flow.
(§4) After the sample spotting and blocking procedure, the ZeptoMARK® chips were transferred to the ZeptoCARRIER (Zeptosens, cat. No. 1100), whose six flow cells individually address the six arrays on a chip, and washed twice with 200 μl CAB1 CeLyA assay buffer (Zeptosens, cat. No. 9032). The assay buffer was then aspirated and each compartment incubated with 100 μl of the primary target antibody (pAkt Ser473; CST#9271) at RT over night. Post incubation, the primary antibody was removed, the arrays washed twice with CAB1 buffer and further incubated with 100 μl of Alexa fluor 647-labeled anti rabbit IgG Fab fragments (Invitrogen; #Z25305) for one hour at RT in the dark. After incubation, the arrays were washed twice with 200 μl CAB1 buffer. The fluorescence of the target-bound Fab fragments is read out on the ZeptoReader (Zeptosens, Witterswil, Switzerland) using a laser (excitation wavelength 635 nm) and a CCD camera. The fluorescence signal was assessed with exposure times of 1, 3, 5 and 10 seconds, depending on the intensity of the signal. The resulting four images taken per array are stored as 16-bit TIF files. […]

[2] = system: PKB Ser473 phosphorylation in Rat1-myr-HA-p110 beta cells; test: Reverse protein array, PKB Ser473 phosphorylation in Rat1-myr-HA-p110 beta cells; conditions: Rattus norvegicus, 0.5 h, 30 minutes compound incubation, read-out: p-PKB/IC50_beta
Description: as §1, §2, §3, §4

[3] = system: PKB Ser473 phosphorylation in Rat1-myr-HA-p110 alpha cells; test: Reverse protein array, PKB Ser473 phosphorylation in Rat1-myr-HA-p110 alpha cells; conditions: Rattus norvegicus, 0.5 h, 30 minutes compound incubation, read-out: p-PKB/IC50_alpha
Description: as §1, §2, §3, §4

SMILES | IC50 [1] | IC50 [2] | IC50 [3]
COc1ccc(-n2c(=O)n(C)c3cnc4ccc(-c5cnc(N)c(C(F)(F)F)c5)cc4c32)c(C)n1 [Example 11.6, 8-(6-Amino-5-trifluoromethyl-pyridin-3-yl)-1-(6-methoxy-2-methyl-pyridin-3-yl)-3-methyl-1,3-dihydro-imidazo[4,5-c]quinolin-2-one] | 15.5 nM | 13 nM | 6.11 nM
CNc1ncc(-c2ccc3ncc4c(c3c2)n(-c2ccc(OC)nc2C)c(=O)n4C)cn1 [Example 11.3, 1-(6-Methoxy-2-methyl-pyridin-3-yl)-3-methyl-8-(2-methylamino-pyrimidin-5-yl)-1,3-dihydro-imidazo[4,5-c]quinolin-2-one] | 23.2 nM | 18.1 nM | 8.83 nM
CNc1ccc(-c2ccc3ncc4c(c3c2)n(-c2ccc(OC)nc2C)c(=O)n4C)cn1 [Example 11.2, 1-(6-Methoxy-2-methyl-pyridin-3-yl)-3-methyl-8-(6-methylamino-pyridin-3-yl)-1,3-dihydro-imidazo[4,5-c]quinolin-2-one] | 31.4 nM | 15.2 nM | 6.97 nM
COc1ccc(-c2ccc3ncc4c(c3c2)n(-c2ccc(OC)nc2C)c(=O)n4C)cn1 [Example 11.5, 1-(6-Methoxy-2-methyl-pyridin-3-yl)-8-(6-methoxy-pyridin-3-yl)-3-methyl-1,3-dihydro-imidazo[4,5-c]quinolin-2-one] | 66.9 nM | 40.8 nM | 16.9 nM
COc1ccc(-n2c(=O)n(C)c3cnc4ccc(-c5cnc(N(C)C)nc5)cc4c32)c(C)n1 [Example 11.4, 8-(2-Dimethylamino-pyrimidin-5-yl)-1-(6-methoxy-2-methyl-pyridin-3-yl)-3-methyl-1,3-dihydro-imidazo[4,5-c]quinolin-2-one] | 136 nM | 127 nM | 86.6 nM
